# Results published in patent US8506997B2, “Pharmaceutical compound containing silymarin and carbopol, its manufacturing process and its use as a regenerator of the pancreatic tissue and cells of endogenous secretion damaged by diabetes mellitus” (Universidad Autonoma Metropolitana, priority 2002, dated 2013).
# Experiments:
# Type in all cases: in vivo
# pancreatic tissue = test: Histopathological analysis of the pancreatic tissue (HE staining); settings: treatment with Alloxan only
# Protocol: (§1) The treatment of the Silymarin and Carbopol combined with Alloxan was done in two ways. In the first case, a dose of 200 mg/Kg of the Silymarin and Carbopol compound was administered orally at 6, 24 and 48 hours (two days) after the first dose. In the second case, in addition to the dose mentioned in the first case, the administration was prolonged every 24 hours after the first dose for five more days (seven days). In both cases, the dose of Alloxan was 150 mg/Kg, which was administered subcutaneously one hour after the first dose of the Silymarin and Carbopol compound.
# This analysis was done in transversal fragments of pancreas approximately 0.7 cm long corresponding to the head of the organ. Subsequently, by the paraffin embedding technique, 5 μm sections where then obtained, which were stained with the dyes hematoxylin and eosin (HE). This technique consists in: 1) dehydration of the tissue, which is done by passing the tissue through different concentration of alcohol (from 25 to 100%) and then to an alcohol-toluene, toluene-paraffin and paraffin mixture. Once the tissues are dehydrated, blocks are formed with paraffin. 2) Sectioning of the tissue. This is done in a microtome, which is adjusted to the right section thickness of 4 to 6 μm and is placed in a slide. 3) Staining of the sections. This was done with the dyes hematoxylin and eosin. […]
# serum glucose = test: Determination of serum glucose (ortho-toluidine method) in Alloxan-induced Diabetes Mellitus; settings: 20 days after Alloxan, before starting the treatment with the Silymarin and Carbopol compound
# Protocol: as §1
# The determination of blood glucose was carried out by the Baner method. This consisted in taking 50 μl of serum to which 3.0 ml of ortho-toluidine reagent were added which reacts with aldohexoses and forms […] and a Schiff base, the green color developed has a maximum absorption at 620 nm and is proportional to the quantity of glucose present.
# In the case of the combined administration of the Silymarin and Carbopol compound with Alloxan, the determination of serum glucose was done before the administration of the drugs and at 3, 5, 15 and 30 days after the treatment. […]
# glutathione peroxidase = test: Activity of pancreatic antioxidant enzymes: glutathione peroxidase; settings: pancreas; Alloxan (20 days after its administration)
# Protocol: (§2) A determination was made of the pancreatic activity of the antioxidant enzymes: superoxide dismutase, glutathione peroxidase and catalase. To do such determination, the pancreas was weighed, it was homogenized with a phosphate buffer 50 mM, it was centrifuged at 3000 rpm, and the supernatant was separated. The activities of the aforementioned enzymes was determined in this.
# Glutathione peroxidase.—This quantification was done by the method of Prasad et al. (1992). This enzyme catalyzes the breakdown of H2O2 by the NADPH. Its activity is measured by the velocity of absorbance change during the conversion of NADPH to NADP^+ and this may be spectrophotometrically registered at […].
# islets of Langerhans = test: Immunohistochemical analysis for insulin and glucagon in the islets of Langerhans by confocal microscopy; settings: treatment with Alloxan only (FIG. 1)
# Protocol: as §1
# This analysis is carried out on sections of pancreatic tissue (corresponding to the head of the pancreas). Once the sections have been obtained (described in example 3) they are placed on a slide and the tissue is then deparaffinated and rehydrated. It is begun in pure xylol, with two changes of 10 minutes each. The samples are then passed to a mixture of ethanol-xylol for 10 minutes and afterward to alcohols of different percentages: 100, 90, 80 and 70% for five minutes each. […] At the end of this time, they are flushed with PBS and incubated in a mixture of secondary antibodies coupled with fluorochromes, fluorescein and rhodamine, for one hour at ambient temperature and they are then mounted in a specific medium to preserve the fluorescence. The samples are analyzed by confocal microscopy. […]
# catalase = test: Activity of pancreatic antioxidant enzymes: catalase; settings: pancreas; Alloxan (20 days after its administration)
# Protocol: as §2
# Catalase.—This quantification was carried out by the Aebi method (1995). This enzyme catalyzes the breakdown of H2O2 and the decomposition velocity of the oxygenated water is measured spectrophotometrically at 240 nm.
# superoxide dismutase = test: Activity of pancreatic antioxidant enzymes: superoxide dismutase; settings: pancreas; Alloxan (20 days after its administration)
# Protocol: as §2
# Superoxide dismutase.—This quantification was done by the method of Prasad et al. (1992). Superoxide ions are formed by xanthine and xanthine oxidase. These ions react with the tetrazolium blue and they form a colour compound that can be spectrophotometrically quantified at 560 nm. A unit of superoxide dismutase can inhibit the formation of this compound by 50%.
smiles,measurement,setting,value
O=C1NC(=O)C(=O)C(=O)N1 [Alloxan],histopathology of the pancreatic tissue,pancreatic tissue,cellular disorganization with loss of the islets of Langerhans
same,serum glucose concentration above the normal value,serum glucose,approximately 400%
same,Enzymatic activity Glutathione Peroxidase,glutathione peroxidase,0.016 ± .002 μM NADPH/min/mg prot
same,"pancreatic islet, insulin and glucagon immunostaining",islets of Langerhans,destruction occurred of the pancreatic islet
same,Enzymatic activity Catalase,catalase,0.01 ± 0.002 k/sec/mg of protein
same,Enzymatic activity Superoxide Dismutase,superoxide dismutase,4.3 ± 0.02 U/mg protein.
